Results as given in patent publication US11229635B2, “Method of treating fibrosis” (BCN Biosciences L.L.C., priority 2016, dated 2022).

Assays:
[1] = test system: canonical Wnt-β catenin signaling; assay: TCF/LEF luciferase reporter assay in HEK293 cells; format: cell-based; conditions: 10 mM, 24 h, positive control
Protocol: LiCl (10 mM) treatment was used as positive control for luciferase activity. Luciferase activity was determined after 24 h using a Dual-Luciferase® Reporter Assay System (Promega) as per manufacturer's protocol. HEK293 cells containing a FOPFlash construct were used as a negative control.

[2] = test system: plasma cytokines; assay: Mouse Cytokine panel ELISA Array of plasma after irradiation; format: in vivo; conditions: irradiated mice (7 G), 200 mg/kg SC Day 1 to 7, blood Day 8
Protocol: Mice were irradiated on Day 0. Animals were dosed with drug for 7 consecutive days (Day 1 to 7) at 200 mg/kg SC, with terminal blood collection on Day 8. Plasma from 3 mice was pooled for each condition Y axis represents relative absorbance units.
The plasma was tested with the Mouse Cytokine panel ELISA Array panel—by SIGNOSIS™

[3] = test system: bone marrow hematopoietic stem cells (HSCs); assay: Total body irradiation survival (hematopoietic suppression); format: in vivo, C3H/HeN mice; conditions: 7.75 Gy TBI, 30 day; male 50 mg/kg, female 25 mg/kg C3H/HeN mice
Protocol: FIG. 8A-C: (A) Kaplan Meier Plot of Male C3H/HeN mice 7.75Gy 30 Day TBI (n=30) 50 mg/kg BCN057. (B). Kaplan Meier Plot of Female C3H/HeN mice 7.75Gy 30 Day TBI (n=10) 25 mg/kg BCN057. (C) Cytokine Profile in Plasma Male C3H/HeN mice 7.75Gy TBI Day 8 receiving BCN057.
7.75 Gy radiation is used to ablate bone marrow hematopoietic stem cells (HSCs) in these strains of mice. […] Lethality from bone marrow suppression occurs in the 14-25 day region due to the life cycle of approximately 2 weeks for RBC and inability to replace them without HSCs
7.73 Gy radiation is used to ablate bone marrow HSCs in the C3H strain of mice.

[4] = test system: radiation dermatitis (erythema, edema); assay: Draize scoring of dermal radiation sites, dermal dosing 10 mg/mL Day 0 to 6; format: in vivo; conditions: Avg of Days 1-6 and 8
[5] = test system: hematopoietic system; assay: Recovery of the hematopoietic system following 6 Gy irradiation; format: in vivo; conditions: C3H mice, s.c. at 24, 48, 72, 96, and 120 hrs
Text: Recovery of the hematopoietic system following 6 Gy irradiation of C3H mice (n=4) with BCN057 treatment (s.c.) at 24, 48, 72, 96, and 120 hrs. RBC- red blood cells (M/uL), HB-hemoglobin (g/dL), and HCT-hematocrit (%). B: recovery of the hematopoietic system following 6 Gy irradiation of C3H mice (n=4) with BCN057 treatment (s.c.) at 24, 48, 72, 96, and 120 hrs. WBC-white blood cells, NE-neutrophils, LY-lymphocytes. C: platelet (PLT) recovery following 6 Gy irradiation of C3H mice (n=4) with BCN057 treatment (s.c.) at 24,48,72,96, and 120 hrs; p<0.05 with a 1-tail, Student t-test.

[6] = test system: blood platelets; assay: Platelet count in normal mice; format: in vivo, mouse; conditions: eight days oral or subcutaneous, 75-800 mg/kg/day
Protocol: Normal mice were treated with BCN057 for eight days by oral administration or subcutaneous injection. Dose groups included 75 mg/kg/day, 200 mg/kg/day, 400 mg/kg/day, 500 mg/kg/day, and 800 mg/kg/day

[7] = test system: cancer cell lines (leukemia, breast, CNS, colon, melanoma, non-small cell lung, ovarian, prostate, renal); assay: NCI cancer cell line growth screen (percent growth over 48 h, sulforhodamine B); format: cell-based
[8] = Solubility of BCN057 in aqueous formulations; format: physicochemical
Protocol: Several formulations were developed to solubilize BCN057 in aqueous solution at physiologically compatible pHs. These include 100 mM methanesulfonic acid/10% povidone (PVP); 100 mM MSA/2% benzyl alcohol/2% N-methylpyrrolidone (NMP); and, 100 mM MSA/10% ethanol/1% Poloxamer 188.
Several suitable formulations were developed for intravenous, subcutaneous and oral delivery of therapeutic levels of BCN057. These include 30 wt % Captisol (SBE-beta-CD) and 100 mM MSA at pH 4.1 (adjusted with 1.0 N NaOH).

Row | Structure (SMILES) | luciferase activity [1] | plasma cytokine profile [2] | lethality from bone marrow suppression [3] | Average Draize score Edema [4] | Average Draize score Edema Site 2 [4] | Average Draize score Edema Site 3 [4] | Average Draize score Edema Site 4 [4] | Average Draize score Edema Site 5 [4] | Average Draize score Edema Site 6 [4] | Average Draize score Erythema Site 2 [4] | Average Draize score Erythema Site 3 [4] | Average Draize score Erythema Site 4 [4] | Average Draize score Erythema Site 5 [4] | Average Draize score Erythema Site 6 [4] | hematopoietic recovery (RBC, HB, HCT, WBC, NE, LY, PLT) [5] | platelet production [6] | cancer cell growth vs control (no drug) ([7]; 10 uM, 48 h, Leukemia, prostate and kidney cancer) | cancer cell growth vs untreated control ([7]; breast cancer, lung carcinoma, prostate, CNS, melanoma, ovarian, renal and colon cancer lines (FIG. 2)) | solubility ([8]; 30 wt % Captisol (SBE-beta-CD) and 100 mM MSA, up to pH 4.1) | solubility ([8]; addition of 100 mM lactic acid to the MSA mixtures)
1 | [Cl-].[Li+] [LiCl, reference compound] | significantly increased luciferase activity | – | – | – | – | – | – | – | – | – | – | – | – | – | – | – | – | – | – | –
2 | COc1ccc2cc(-c3nc4ccc(C)cn4c3NCc3ccco3)c(=O)[nH]c2c1 [BCN057, 3-(3((furan-2-ylmethyl)ammo)-6-methylimidazo[1,2-α]pyridine-2-yl)-6-methoxyquinolin-2(1H)-one] | – | restores the cytokine profile to similar to that of the control | sufficient to prevent lethality from bone marrow suppression | 0 | 0 | 0.5714 | 0 | 0.4286 | 0 | 0.1429 | 1.286 | 0.1429 | 1.429 | 0.4286 | evidence of improving hematopoietic recovery | induces platelet production in a dose dependent fashion | inhibitory | susceptible | excellent solubility | improved solubility
